Assay results published in the supplement of paper PMC10702517.
± gives the standard deviation.

Test: chemical recovery from spiked human plasma; higher = better extraction
Conditions: pooled human plasma
[1] = extraction method: PES+SPE (3 d PDMS equilibration then HLB SPE)
[2] = extraction method: SPE only (HLB 96-well)
[3] = extraction method: SPE only (HLB 96-well), PES comparison experiment
[4] = extraction method: solvent precipitation (ACN + hexane)

Compound | chemical recovery [1] [%] | chemical recovery [2] [%] | chemical recovery [3] [%] | chemical recovery [4] [%]
C=CCC1(C(C)CCC)C(=O)NC(=O)NC1=O (stereo unspecified) [Secobarbital] | 53.8 ± 5 | 36.7 ± 1.2 | 61.1 ± 8.4 | 72.8 ± 5.8
CCCCCC(CCC)COC(=O)c1ccccc1C(=O)OCC(CCC)CCCCC (stereo unspecified) [Bis(2-propylheptyl)-phthalate] | – | – | – | 70.9 ± 7.4
N#Cc1ccccc1C#N [Phthalonitrile] | – | 8.49 ± 8.2 | – | –
CC(C)(C)c1cc(-n2nc3ccccc3n2)c(O)c(C(C)(C)C)c1 [UV-320] | – | 3.34 ± 1 | – | –
O=C1NS(=O)(=O)c2ccccc21 [Saccharin] | – | 38.6 ± 7.1 | – | –
Oc1cc(-c2ccc(Cl)cc2)ccc1Cl [3-Hydroxy-4,4'-dichlorobiphenyl] | – | 35.7 ± 2.3 | – | 42.3 ± 3.4
CCCCCCCCSc1nc(Nc2cc(C(C)(C)C)c(O)c(C(C)(C)C)c2)nc(SCCCCCCCC)n1 [Irganox-565] | – | 0.236 ± 0.16 | – | –
[O-][n+]1cccc2ccccc21 [Quinoline N-oxide] | 42.6 ± 6 | 43.8 ± 0.64 | – | 76.1 ± 3.2
COCCOCCOCCO [2-(2-(2-Methoxyethoxy)ethoxy)ethanol] | 7.13 ± 2.3 | 6.88 ± 5.6 | – | –
CCCCC(CC)COP(=O)(O)OCC(CC)CCCC (stereo unspecified) [Bis(2-ethylhexyl)phosphate] | 16.4 ± 4.5 | 20.3 ± 2.5 | 3.88 ± 1.6 | 52.8 ± 4.3
Oc1ccc(Cl)c2cccnc12 [5-Chloro-8-hydroxyquinoline] | 2.63 ± 3.2 | 12.2 ± 4.9 | – | –
CNC(=O)Oc1cccc(/N=C/N(C)C)c1 [Formetanate] | – | 8.98 ± 3.5 | – | 2.27 ± 3.9
Cn1c(N)nc2c3cccnc3ccc21 [2-Amino-3-methyl-imidazo[4,5-f]quinoline (IQ)] | – | 11.1 ± 1.8 | – | –
O=c1[nH]sc2ccccc12 [1,2-Benzisothiazolinone] | 7.12 ± 0.96 | 10.7 ± 1.4 | 1.19 ± 2.4 | 5.44 ± 4.6
Nc1ccccc1 [Aniline] | 4.94 ± 0.92 | 4.14 ± 2.7 | – | –
Cc1ccc(C)c(O)c1C [2,3,6-Trimethylphenol] | – | 0.62 ± 1.1 | – | –
COc1cc(C)c(C(=O)c2c(OC)ccc(Br)c2C)c(OC)c1OC [Metrafenone] | – | 50.3 ± 9.1 | – | 76.4 ± 4.6
CC1CC(CC2CCC(N)C(C)C2)CCC1N (stereo unspecified) [Bis(4-amino-3-methylcyclohexyl)methane] | – | – | – | 41.1 ± 7.7
CC(C)NCC(O)COc1ccc(CC(=O)O)cc1 (stereo unspecified) [Metoprolol-acid] | – | 52.1 ± 13 | – | 47.1 ± 8.4
CC(C)NC(=O)N1CC(=O)N(c2cc(Cl)cc(Cl)c2)C1=O [Iprodione] | – | 28.3 ± 5.6 | – | 6.49 ± 2.1
c1ccc2c(c1)sc1ccccc12 [Dibenzothiophene] | – | 16.2 ± 6.1 | – | –
Brc1cc(Br)c(Oc2c(Br)cc(Br)c(Br)c2Br)cc1Br [BDE183] | 5.01 ± 7.1 | – | – | –
CC(C)(c1ccccc1)c1ccc(Nc2ccc(C(C)(C)c3ccccc3)cc2)cc1 [4,4'-Bis(alpha,alpha-dimethylbenzyl)diphenylamine] | – | 2.12 ± 1.1 | – | –

Compound | chemical recovery [1] [%] | chemical recovery [2] [%] | chemical recovery [3] [%] | chemical recovery [4] [%]
c1ccc2sc(SN3CCOCC3)nc2c1 [2-Morpholinothiobenzothiazole] | – | – | – | 139 ± 8.9
O=S(=O)(O)C(F)(F)C(F)(F)C(F)(F)C(F)(F)F [Perfluorobutanesulfonic-acid] | 49.5 ± 3.7 | 45.3 ± 3.3 | – | 81.9 ± 2.1
CC(C)(c1ccc(O)cc1)c1ccc(O)cc1 [Bisphenol-A] | 69.8 ± 4.4 | 45.4 ± 3.8 | – | –
CCCCC(CC)COC(=O)C=Cc1ccc(OC)cc1 (stereo unspecified) [Octyl-methoxycinnamate] | – | 10.2 ± 2.1 | – | 141 ± 20
COc1ccc2c(c1)[C@]13CCCC[C@@H]1[C@H](C2)N(C)CC3 [Dextromethorphan] | 0.431 ± 0.16 | 39.3 ± 3.3 | – | 70.1 ± 5.1
Cn1c(=O)c2[nH]cnc2n(C)c1=O [Theophyllin] | – | – | 95.7 ± 22 | 101 ± 6.1
CNCCCN1c2ccccc2CCc2ccccc21 [Desipramine] | 1.49 ± 0.66 | 35.8 ± 2.3 | – | 62.7 ± 6.1
c1ccc2c(c1)ccc1c3ccccc3ccc21 [Chrysene] | – | 10.9 ± 2.5 | – | –
Cc1c(N)c(=O)n(-c2ccccc2)n1C [4-Aminoantipyrine] | 6.85 ± 1.7 | 8.59 ± 2.6 | – | 67.1 ± 4.8
O=C(Nc1ccccc1)NC1CCCCC1 [1-Cyclohexyl-3-phenylurea] | 70.3 ± 10 | 57.4 ± 16 | – | 79.9 ± 4
O=C(O)CCCCCCC(=O)O [Suberic-acid] | 99.8 ± 34 | 82.2 ± 2.5 | – | –
COc1ccc2c(c1)[nH]c1c(C)nccc12 [Harmine] | 37.8 ± 5.3 | 37.3 ± 2.9 | 48.6 ± 4.2 | –
O=c1n(CC(Br)CBr)c(=O)n(CC(Br)CBr)c(=O)n1CC(Br)CBr (stereo unspecified) [Tris(2,3-dibromopropyl)isocyanurate] | – | 3.25 ± 5.6 | – | –
C[N+](C)(C)CC(O)CCl (stereo unspecified) [(3-Chloro-2-hydroxypropyl)trimethylammonium] | 0.458 ± 0.03 | 1.05 ± 0.96 | 9.57 ± 8 | –
COP(=S)(OC)Oc1c(Cl)cc(C)cc1Cl [Tolclofos-methyl] | – | 33.8 ± 9.1 | – | 62 ± 6.2
CCCCOC(=O)CCCCCCCCC(=O)OCCCC [Dibutyl-sebacate] | – | 28.7 ± 6.6 | – | –
Nc1ccc(S(=O)(=O)Nc2nccs2)cc1 [Sulfathiazole] | – | 31.1 ± 2.5 | 51.1 ± 6.3 | 69.2 ± 3.2
CCN(CC)C(=O)C(C)Oc1cccc2ccccc12 (stereo unspecified) [Napropamide] | – | – | – | 70.6 ± 2.5
CN(C)S(=O)(=O)c1ccc(N)cc1 [4-Amino-NN-dimethylbenzenesulfonamide] | 51.6 ± 4 | 45.4 ± 4.2 | – | 77.3 ± 4
O=S(=O)(O)C(F)(F)C(F)(F)C(F)(F)C(F)(F)C(F)(F)F [Perfluoropentanesulfonic-acid] | 47.1 ± 4.2 | 36.5 ± 4.8 | – | 72.9 ± 3.6
CC(C)(C)C(O)(CCc1ccc(Cl)cc1)Cn1cncn1 (stereo unspecified) [Tebuconazole] | – | – | – | 77.8 ± 3.1
O=C(O)CCCCCCCCC(=O)O [Sebacic-acid] | 54.6 ± 13 | 48.9 ± 13 | – | –
Oc1c(Cl)cc(-c2ccc(Cl)cc2)cc1Cl [4-Hydroxy-3,4',5-trichlorobiphenyl] | 46.3 ± 7.3 | 36.1 ± 5.9 | – | 27.9 ± 1.8

Compound | chemical recovery [1] [%] | chemical recovery [2] [%] | chemical recovery [3] [%] | chemical recovery [4] [%]
CN/C(=N\CCSCc1nc[nH]c1C)NC#N [Cimetidine] | – | – | – | 54.8 ± 1.7
O=C(O)COc1nc(Cl)c(Cl)cc1Cl [Triclopyr] | 43 ± 3.5 | 37 ± 3.9 | – | 70.3 ± 2.9
O=S(=O)(O)C(F)(F)C(F)(F)C(F)(F)C(F)(F)C(F)(F)C(F)(F)C(F)(F)C(F)(F)F [Perfluorooctanesulfonic acid] | – | 26.8 ± 0.38 | – | –
C[N+](C)(C)Cc1ccccc1 [Benzyltrimethylammonium] | – | 3.88 ± 2.8 | – | 75.8 ± 2.6
CC[C@H](C)[C@H]1O[C@]2(C=C[C@@H]1C)C[C@@H]1C[C@@H](C/C=C(\C)[C@@H](O[C@H]3C[C@H](OC)[C@@H](O[C@H]4C[C@H](OC)[C@@H](NC)[C@H](C)O4)[C@H](C)O3)[C@@H](C)/C=C/C=C3\CO[C@@H]4[C@H](O)C(C)=C[C@@H](C(=O)O1)[C@]34O)O2 [Emamectin-B1a] | – | 17.2 ± 7.2 | – | –
CCCCOC(=O)c1ccc(O)cc1 [Butylparaben] | 51.3 ± 3.1 | 37.5 ± 1.3 | – | 64.9 ± 1.9
O=C(O)C(F)(F)C(F)(F)C(F)(F)C(F)(F)C(F)(F)C(F)(F)C(F)(F)C(F)(F)C(F)(F)C(F)(F)C(F)(F)C(F)(F)C(F)(F)F [Perfluorotetradecanoic acid] | – | – | – | 41.3 ± 11
Cc1ccc(-c2c(Cl)nc(C#N)n2S(=O)(=O)N(C)C)cc1 [Cyazofamid] | – | 41 ± 2 | – | –
O=C(O)CCCOc1ccc(Cl)cc1Cl [2,4-DB] | 66.6 ± 7.5 | 50.7 ± 2.8 | – | 61.5 ± 6
COP(=S)(OC)Oc1ccc(SC)c(C)c1 [Fenthion] | 1.29 ± 0.38 | 59.7 ± 2.1 | 47 ± 8.3 | –
NC(=O)C1(N2CCCCC2)CCN(CCCC(=O)c2ccc(F)cc2)CC1 [Pipamperone] | 4.98 ± 1.1 | 28.3 ± 3.7 | – | 71.4 ± 4.4
CC1(C)O[C@@H]2C[C@H]3[C@@H]4C[C@H](F)C5=CC(=O)C=C[C@]5(C)[C@@]4(F)[C@@H](O)C[C@]3(C)[C@]2(C(=O)CO)O1 [Fluocinolone acetonide] | – | – | 46.1 ± 5.2 | –
CC[C@H](C)C(=O)O[C@H]1C[C@H](O)C=C2C=C[C@H](C)[C@H](CC[C@@H](O)C[C@@H](O)CC(=O)O)[C@H]21 [Pravastatin] | 31.6 ± 3.5 | 28.1 ± 2.9 | 58.6 ± 5.1 | 67 ± 6.7
Cc1c(Br)c(Br)c(Br)c(Br)c1Br [Pentabromotoluene] | 61.6 ± 3.7 | 6.76 ± 2.3 | – | –
CC(c1ccc(O)cc1)c1ccc(O)cc1 [Bisphenol-E] | 62.3 ± 2.5 | 51 ± 4 | – | 63.7 ± 3.1
Cn1c(N)nc2c3cccnc3ccc21 [2-Amino-3-methyl-imidazo[4,5-f]quinoline-(IQ)] | 27 ± 5.9 | 13.8 ± 2.6 | – | 73.4 ± 2.7
CC1(C)C(C=C(Cl)Cl)C1C(=O)OCc1cccc(Oc2ccccc2)c1 (stereo unspecified) [Permethrin] | 55 ± 9.7 | 2.59 ± 1 | – | 35.4 ± 3.1
O=C(c1ccccc1)c1ccc(O)cc1 [4-Hydroxybenzophenone] | 65.9 ± 5.4 | 53 ± 4.1 | – | 77.7 ± 3.6
Cc1ccc2ccccc2c1 [2-Methylnaphthalene] | – | 2.91 ± 1.5 | – | –
CCN(CCC#N)c1ccc(N=Nc2c(Br)cc([N+](=O)[O-])cc2Br)cc1 [Disperse-Orange-61] | – | 39.7 ± 11 | – | 80.2 ± 8.3
N=C(NCCCCCCNC(=N)NC(=N)Nc1ccc(Cl)cc1)NC(=N)Nc1ccc(Cl)cc1 [Chlorohexidine] | – | – | – | 54.5 ± 1.9
CCCCCCCCOC(=O)CCc1cc(C(C)(C)C)c(O)c(C(C)(C)C)c1 [Octyl-3,5-di-tert-butyl-4-hydroxyhydrocinnamate] | – | – | 0.29 ± 0.58 | –
Nc1nc2ccccc2[nH]1 [2-Aminobenzimidazole] | – | 18.8 ± 4.5 | – | 68.3 ± 4.5
